# Test results from patent publication US20150258052A1, “METHODS OF USING FEXARAMINE AND AGENTS THAT INCREASE SYMPATHETIC NERVOUS SYSTEM ACTIVITY TO PROMOTE BROWNING OF WHITE ADIPOSE TISSUE” (Salk Institute for Biological Studies, priority 2014, published 2015).
# What was measured:
# normal chow-fed mice = experiment: Chronic oral fexaramine in normal chow-fed mice; type: in vivo
# Method: FIGS. 3A-3D are line graphs and a bar graph showing the effects of fexaramine administration in normal chow-fed mice. The mice were treated with vehicle or fexaramine (100 mg/kg) via PO for 5 weeks. Data represent the mean±STD. Statistical analysis as performed with the Student's t test (*p<0.05, **p<0.01).
# To investigate the physiological effects of intestinal FXR activation by fexaramine, mice were subjected to chronic fexaramine (100 mg/kg Fex) PO treatment for 5 weeks.
# human TGR5 = molecular target: T1, human TGR5 (Homo sapiens, UniProt Q8TDU6); experiment: TGR5 cAMP-response element luciferase reporter in HEK293 cells; type: cell-based; details: HEK293 cells transfected with human TGR5, treated 5 hours
# T1 construct: expressed in transfected cells; host or cells: HEK293
# T1 sequence (Q8TDU6 1-330): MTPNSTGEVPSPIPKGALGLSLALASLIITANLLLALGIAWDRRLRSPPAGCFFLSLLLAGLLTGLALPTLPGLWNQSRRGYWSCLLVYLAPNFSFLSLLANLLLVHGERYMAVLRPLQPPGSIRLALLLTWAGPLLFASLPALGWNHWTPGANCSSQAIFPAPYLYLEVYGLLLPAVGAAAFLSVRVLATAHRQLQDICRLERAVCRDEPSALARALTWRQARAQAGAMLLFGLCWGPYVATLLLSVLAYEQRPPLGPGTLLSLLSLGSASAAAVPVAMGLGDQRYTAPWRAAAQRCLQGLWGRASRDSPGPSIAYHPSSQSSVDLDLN
# Method: HEK293 cells were transfected with expression vectors for cAMP-response element luciferase, β-galactosidase and human TGR5. 24 hours after transfection, cells were treated with fexaramine or INT-777 (a TGR5 agonist)
# at the indicated concentrations for 5 hours, prior to measurement of luciferase activity. Data represent the mean±SD. Statistical analysis was performed with the Student's t test. *p<0.05, **p<0.01.
# DIO mice = experiment: Chronic oral fexaramine in diet-induced obesity (DIO) mice: weight, adiposity, serum parameters, GTT, ITT; type: in vivo; details: for glucose tolerance (glucose tolerance test) / insulin sensitivity (insulin tolerance test): PO 5 weeks
# Method: FIGS. 2A-2G are graphs illustrating the reduction of diet-induced obesity and improvement in metabolic homeostasis with fexaramine. Mice were fed a high fat diet (HFD) for 14 weeks and then administered daily oral injections of vehicle (open boxes) or fexaramine (100 mg/kg) (solid boxes) for 5 weeks with HFD. Data represent the mean±STD. Statistical analysis was performed with the Student's t test (*p<0.05, **p<0.01).
# FIG. 2A is a line chart illustrating changes in body weight of mice fed a high fat diet (HFD) for 14 weeks and then administered daily oral injections of vehicle (open boxes) or fexaramine (100 mg/kg) (solid boxes) for 5 weeks with HFD. n=8 per group.
# (§1) FIG. 4A is a line graph showing the effects of fexaramine at various dosage levels on the body weight of mice fed a HFD for 14 weeks and then administered daily oral injections of vehicle or fexaramine (10, 50 or 100 mg/kg) for 5 weeks with a HFD. Data represent the mean±STD. Statistical analysis was performed with the Student's t test (*p<0.05, **p<0.01).
# FIG. 4B is a set of digital images showing histological analysis of the ileum and colon following treatment with fexaramine or vehicle. Mice were fed on HFD for 14 weeks, and then administered daily oral injections of vehicle or fexaramine (100 mg/kg) for 5 weeks with HFD.
# as §1, with “4C” for “4A”, “glucose tolerance tests in” for “the effects of fexaramine at various dosage levels on the body weight of”, “with” for “with a”
# The physiological effects of fexaramine in established obesity (diet-induced obesity, DIO) models were evaluated. C57BL/6J mice were fed a diet of 60% fat for 14 weeks and then treated PO with vehicle or fexaramine (100 mg/kg) for 5 weeks. […] Analyses of serum metabolic parameters including leptin, insulin, cholesterol, and resistin reflected that fexaramine-mediated weight gain resistance is accompanied by improved endocrine and metabolic profiles (FIGS. 2D and 4D).
# Obesity and its metabolic complications are associated with chronic low-grade inflammation, reflected by elevated serum levels of inflammatory cytokines. […] Therefore, glucose tolerance tests (GTTs) and insulin tolerance tests (ITTs) were performed to determine if glucose homeostasis was improved in fexaramine-treated DIO mice.
# [1] = tested on: brown adipose tissue (BAT); experiment: Energy expenditure and brown adipose tissue (BAT) analysis in Fex-treated DIO mice; type: in vivo
# Method: Mice were fed HFD for 14 weeks and then administered vehicle or fexaramine (100 mg/kg) daily by oral administration for 5 weeks with HFD. Data represent the mean±STD. Statistical analysis was performed with the Student's t test (*p<0.05, **p<0.01).
# FIG. 6M is a bar chart showing the effect of fexaramine on respiratory exchange ratio (RER). Mice were fed on HFD for 14 weeks, and then administered daily oral injections of vehicle or fexaramine (100 mg/kg) for 5 weeks with HFD.
# FIG. 6N is a bar graph showing the effect of fexaramine administration on serum lactate concentrations. Mice were fed on HFD for 14 weeks, and then administered daily oral injections of vehicle or fexaramine (100 mg/kg) for 5 weeks with HFD. […] Data represent the mean±STD. Statistical analysis was performed with the Student's t test (*p<0.05, **p<0.01).
# (FIG. 6E). […] Gene expression analysis confirmed the induction of ERRγ, PGC-1α, and PGC-1β, as well as a number of their target genes involved in thermogenesis, mitochondrial biogenesis, and fatty acid oxidation in BAT (FIG. 6G).
# [2] = DIO mice, 100 mg/kg PO 5 weeks, listed as fexaramine, 100 mg/kg
compound,measurement,setting,value
"COC(=O)/C=C/c1cccc(N(Cc2ccc(-c3ccc(N(C)C)cc3)cc2)C(=O)C2CCCCC2)c1 [Fex, fexaramine]","weight gain, basal metabolic activity and glucose tolerance","normal chow-fed mice; chow-fed mice, 100 mg/kg PO 5 weeks",indistinguishable from vehicle-treated mice
same,glucose homeostasis,"normal chow-fed mice; normal chow-fed mice, range of doses",no effects observed
same,TGR5 activation (luciferase activity),human TGR5,does not activate
same,TGR5 activation (luciferase activity),human TGR5; listed as fexaramine,fails to activate TGR5
same,intestinal toxicity (histology of ileum and colon),"DIO mice; DIO mice, 100 mg/kg PO 5 weeks",no signs of intestinal toxicity
same,overall fat mass (MRI),"DIO mice; DIO mice, 100 mg/kg PO 5 weeks",reduced overall fat mass
same,"serum levels of inflammatory cytokines TNFα, IL-1α, IL-1β, IL-17 and MCP-1","DIO mice; DIO mice, 100 mg/kg PO 5 weeks",markedly decreased
same,wet weights of subcutaneous (inguinal) and visceral (gonadal and mesenteric) adipose depots,"DIO mice; DIO mice, 100 mg/kg PO 5 weeks",significant reductions
same,"glucose, insulin, leptin, cholesterol and resistin levels","DIO mice; DIO mice, 100 mg/kg PO 5 weeks, serum after 8 hours fasting","reduced glucose, insulin, leptin, cholesterol, and resistin levels"
same,"prevention of weight gain, dose dependence","DIO mice; DIO mice, 10, 50 or 100 mg/kg PO 5 weeks",dose-dependent manner
same,weight gain,"DIO mice; DIO mice, HFD 14 weeks then 100 mg/kg PO 5 weeks",prevented weight gain
same,glucose tolerance (glucose tolerance test),DIO mice; DIO mice,dose-dependent improvements
same,insulin sensitivity (insulin tolerance test),DIO mice; DIO mice,dose-dependent improvements
same,glucose tolerance (glucose tolerance test),"DIO mice; DIO mice, listed as fexaramine",improved glucose clearance
same,insulin sensitivity (insulin tolerance test),"DIO mice; DIO mice, listed as fexaramine",improved insulin sensitivity
same,weight gain at the highest dose,"DIO mice; DIO mice, highest dose",almost completely abrogated
same,"OXPHOS gene expression changes in inguinal, gonadal and brown adipose depots (RNA-sequencing)","[1]; DIO mice, 100 mg/kg PO 5 weeks",selectively enhance OXPHOS activity only in BAT
same,PKA activity in BAT,"[1]; DIO mice, 100 mg/kg PO 5 weeks",increased PKA activity
same,accumulation of lipid vesicles in BAT (histology),"[1]; DIO mice, 100 mg/kg PO 5 weeks",markedly reduced
same,ambulatory counts (activity),"[1]; DIO mice, 100 mg/kg PO 5 weeks",more active than control mice
same,carbon dioxide production (VCO2),"[1]; DIO mice, 100 mg/kg PO 5 weeks",exhaled more carbon dioxide
same,"gene expression of ERRγ, PGC-1α, PGC-1β and target genes in BAT","[1]; DIO mice, 100 mg/kg PO 5 weeks",induction
same,oxygen consumption (VO2),"[1]; DIO mice, 100 mg/kg PO 5 weeks",consistently higher oxygen consumption
same,phosphorylation level of p38 in BAT,"[1]; DIO mice, 100 mg/kg PO 5 weeks",increased the phosphorylation level of p38
same,serum lactate levels,"[1]; DIO mice, 100 mg/kg PO 5 weeks, 100 mg/kg",significantly reduced
same,respiratory exchange ratio (RER),[1]; [2],No changes were observed
same,serum lactate levels,[1]; [2],significantly decreased
same,food intake,"[1]; DIO mice, first week of treatment",not attributable to difference in food intake
same,DIO2 (downstream target of TGR5) in BAT,[1]; oral Fex,induce DIO2
